Experimental data from patent US8268635B2, “Methods of identifying agents that selectively activate p38 and/or NKkB signaling” (priority 2006, dated 2012).
Entries after “also recorded” stand apart in the source; their conditions may differ. Where no end group is shown, it is not given here.

Key:
macrophage = conditions: previous comparisons; cited from earlier work
p38 [1] = experiment: p38 activation in 70Z/3 cells transfected with hTNFR1 constructs; format: cell-based, mouse
Experimental: The cells were then lysed, protein contents quantified and subjected to p38 kinase assay by Western blot. The results are presented as the mean+−sem of 3 experiments.
The cells were maintained in RPMI-1640 medium with 4.5 g/L glucose, 2 mM L-glutamine, […] 2-mercaptoethanol and 10% FCS in an atmosphere of 95% air and 5% CO2. Cells were plated onto 10 cm plates at 4×10^7 cells in 15 ml culture medium. Before performing transient transfection, plasmid DNA (hTNFR1), kindly provided by Dr M. Kronke, Institute of Medical Microbiology and Hygiene, Medical Center University of Cologne, Koln, Germany (Adam, D., Wiegmann, K., Adam-Klages, S., Ruff A., and Kronke, M. (1996) J. Biol. Chem. 271: 14617-22), (20 μg in 1 ml of RPMI1640) was mixed with LipofectAMINE 2000 (Invitrogen) (60 μl in 1 ml of RPMI) and the mixture were left at room temperature for 20 min. The mixture was directly added to the cells and incubated for 24 h. The cells were washed twice with HBSS before use.

[2] = system: mutant receptor peptide M4; experiment: Binding of biotinylated TNF70-80 to mutant receptor peptide M4; design: species or system human; conditions: 20 μM biotinylated TNF70-80, 18 hrs at 37° C.
Experimental: (§1) 100 μl of 0.7 mM solution of M4 or 1% BSA in PBS for control was coated on plates overnight for 24 hrs at 37° C. Plates were blocked for 6 hrs at 37° C. with 3% BSA in PBS. 100 μl of 20 μM of B-TNF70-80 was added to each well and allowed to incubate for 18 hrs at 37° C. Streptavidin-horseradish peroxidase and TMB H2O2 was added and bound product was detected by measuring absorbance at 450 nm.
as §1, with “Streptvadin-horseradish” for “Streptavidin-horseradish”

neutrophils = experiment: Neutrophil superoxide production, lucigenin chemiluminescence assay; format: cell-based, human; conditions: agent alone as stimulus
Experimental: Neutrophils were pre-treated with varying concentrations of SB203580 for 30 min and then exposed to 10 μM TNF70-80. The lucigenin enhanced chemiluminescence produced by the cells was measured in a luminometer. The peak initial rate of chemiluminescence produced is presented as the mean±sem of six experiments. The response in the presence of the inhibitor is expressed as a % of the control response.
Neutrophil superoxide production was measured as the chemiluminescence generated by the reduction of lucigenin, essentially as described previously (Kumaratilake, L. M., Rathjen, D. A., Mack, P., Widmer, F., Prasertsiriroj, V., and Ferrante, A. (1995) J. Clin. Invest. 95: 2315-2323). Briefly, to 1×10^6 neutrophils in 400 μl of HBSS was added 100 μl of stimulus and 500 μl of 250 μg/ml of lucigenin. The chemiluminescence was measured in a luminometer (Berthold Technologies, Bad Wildbad, Germany) over a 20 min period and the data imported into Microsoft Excel (Redmond, Wash.).
The cells were placed in a water-jacketed luminometer chamber (37° C.) (Autolumat Plus Model LB 953, Berthold Technologies, Bundoora, Australia) and the resulting light output recorded in millivolts (mV) at 10 second intervals. The data was analysed with Multiuser software (Berthold Tubemaster, Bundoora, Australia). The results are expressed as peak superoxide produced.
Various concentrations of TNFR1 fragment or diluent were added to neutrophils (106 in 100 μl HBSS) and incubated at 37° C. for 30 min 5% CO2 in air. After incubation 500 μl of lucigenin (250 μM, final), 100 μl of TNF70-80 (100 μg) were added and the final volume was adjusted to 1 ml.
Superoxide production by human neutrophils was measured by the reduction of the fluorescent lucigenin, (9,9′-bis(N-methyl-acridinium nitrate) (Sigma Chemical Company). This provides a direct and specific measure of agonist-induced superoxide production. Lucigenin-dependant chemiluminescence was measured as described previously Gyllenhannar H. (1987) J. Immunol. Methods 97:209-213. Briefly, 50 μl of 100 mg/ml of peptide or diluent and 250 ml of lucigenin was added to neutrophils (5×10^5 in 50 μl HBSS). The cells were placed in a water-jacketed luminometer chamber (37° C.) (Autolumat Plus Model LB 953, Berthold Technologies, Bundoora, Australia) and the resulting light output recorded in millivolts (mV) at 10 second intervals. The data was analysed with Multi-user software (Berthold Tubemaster, Bundoora, Australia).
Data are presented as mean±SEM of 3 experiments.

p38 [3] = experiment: p38 activity in HEK293T cells; format: cell-based, human
Experimental: HEK 293T cells were stably transfected with wild-type TRAF2, a dominant-negative TRAF2 (ΔTRAF2) or an empty vector. TNF70-80 (10 μM) was added and the cells were incubated for 5 min. at 37° C., lysed and p38 immunoprecipitated. Kinase activity was assayed using myelin basic protein as a substrate. The data (representative digital radiogram and profile of phosphorylated MBP) shown are representative of 2 experiments.
HEK 293T cells were obtained from the American Type Culture Collection and maintained in DMEM, supplemented with 10% fetal calf serum. Cells, stably transfected with pRK5-TRAF2-FLAG, pRK5-TRAF287-501-FLAG (Dr. V. Dixit, Genentech Inc., South San Francisco) or an empty plasmid using LipofectAMINE 2000, were obtained from Dr P Xia, Hanson Institute, Adelaide, Australia) (Xia, P., Wang, L., Moretti, P. A., Albanese, N., Chai, F., Pitson, S. M., D'Andrea, R. J., Gamble, J. R., and Vadas, M. A. (2002) J. Biol. Chem. 277: 7996-8003).
Lysates containing equal amounts of protein (0.5-1 mg) were precleared with protein A sepharose (4° C.) before being incubated with anti-KHS, anti-p38, anti-ASK-1 or anti-ERK2 antibody (3 μg/sample). After mixing for 2 h (4° C.), the immune complexes were precipitated by the addition of protein A sepharose. The immunoprecipitates were collected by centrifugation (16,000 g×15s) and washed once with buffer A (4° C.), once with buffer B (10 mM Tris/HCl, pH 7.6, 100 mM NaCl, 1 mM EDTA and 100 μM […] and once with assay buffer (Hii, C. S., Huang, Z. H., Bilney, A., Costabile, M., Murray, A. W., Rathjen, D. A., Der, C. J., and Ferrante, A. (1998) J. Biol. Chem. 273: 19277-19282).
KHS (hereon referred to as “GCKR”) activity was assayed as described previously using myelin basic protein as a substrate (Shi, C. S., Leonardi, A., Kyriakis, J., Siebenlist, U., and Kerhl, J. H. (1999) J. Immunol. 163: 3279-3285). ASK-1 activation was determined in immunoprecipitates of ASK-1 by autophosphorylation (Kyriakis, J. M., and Auruch, J. (2001) Physiol. Rev. 81: 807-869). p38 and ERK activities were determined as described using myelin basic protein as a substrate (Hii, C. S., Huang, Z. H., Bilney, A., Costabile, M., Murray, A. W., Rathjen, D. A., Der, C. J., and Ferrante, A. (1998) J. Biol. Chem. 273: 19277-19282). […] A solid phase assay using glutathione-S-transferase (GST)-conjugated-jun (1-79) was employed to assay JNK activity (Hii, C. S., Huang, Z. H., Bilney, A., Costabile, M., Murray, A. W., Rathjen, D. A., Der, C. J., and Ferrante, A. (1998) J. Biol. Chem. 273: 19277-19282). Phosphorylated ASK-1, myelin basic protein and GST-jun (1-79) were fractionated on 8, 16 and 12% SDS polyacrylamide gels, respectively, and the bands were detected and radioactivity determined using an Instant Imager (Packard Instruments, Canberra, Australia). […]

Substance: PSTHVLITHTI-OH [TNF70-80]
- concentration that equates to 1000 U/ml of TNF in ability to stimulate nitric oxide production in macrophage (macrophage): 5.0 µg/mL
- p38 activity in 70Z cells transfected with an empty vector (p38 [1]): did not stimulate the activity of p38
- p38 activity in 70Z cells, TNF receptor with C1-C3 deleted (p38 [1]): still able to stimulate p38 activity
- p38 activity in 70Z cells, TNF receptor with C1-C4 deleted (p38 [1]): retained its ability to stimulate p38 activity
- p38 activity in 70Z cells, TNF receptor with C1 domain deleted (p38 [1]): able to stimulate the activity of p38
- p38 activation in 70Z/3 cells transfected with wild type hTNFR1 (p38 [1]; 5 min, TNF 1000 U/ml, peptides 10 μM): caused the activation of p38; also recorded: stimulated the activity of p38 in cells transfected with wild type receptors
- p38 activation in non-transfected 70Z/3 cells (p38 [1]; cells lacking TNFR, 5 min, TNF 1000 U/ml, peptides 10 μM): neither TNF nor TNF70-80 activated p38
- binding to mutant receptor peptide M4 (truncated receptor) [2]: binds to the truncated receptor
- stimulation of neutrophil respiratory burst / superoxide production (neutrophils): stimulated a respiratory burst
- activity of p38 in HEK293T cells (p38 [3]): able to stimulate the activity of p38
- p38 activation in HEK293T cells expressing dominant-negative ΔTRAF2 (p38 [3]; TNF70-80 10 μM, 5 min): substantial attenuation of this response
- p38 activation in HEK293T cells over expressing TRAF2 compared to empty plasmid (p38 [3]; TNF70-80 10 μM, 5 min): enhanced the activation of p38 by TNF70-80
- increase of p38 activity over control in HEK293T cells (p38 [3]; treatment for 5 min, p<0.05, n=3): 243+27 % over control
